In patent US10174047B2, “Thienodiazepine derivatives or pharmaceutically acceptable salts thereof, and pharmaceutical composition including the same as an active ingredient” (Industry-University Cooperation Foundation Hanyang …, priority 2015, dated 2019):

System: A375P cell line (melanoma)
Experiment: Proliferation inhibition activity against A375P cell line (MTT assay)
Assay type: cell-based
Conditions: A375P melanoma cells; for GI50: MTT assay, read-out: A375P (GI50); for effects against A375P: statement in words
Protocol: Measurement of Proliferation Inhibition Activity Against A375P Cell Line (Melanoma)
An A375P cell line purchased from ATCC was cultured in a DMEM medium [containing 10% FBS, 1% penicillin/streptomycin] at 37° C. in the presence of 5% CO2. The cultured A375P cell line was taken using 0.05% trypsin-0.02% EDTA, and seeded into a 96-well plate at a density of 5×10^3 cells per well.
Cell viability was measured using an MTT [3-(4,5-dimethylthiazol-2-yl)-2,5-diphenyltetrazolium bromide] assay (CellTiter 96 Assay, Promega) as follows. 15 μl of dye was placed per well, the cells were cultured for 2 hours, and then treated with 100 μl of a stop solution, and after 24 hours, absorbance was measured. One day after plating, they were treated with compounds. For treatment with compounds, […] of stock was prepared, and serially diluted to one-third in dimethyl sulfoxide (DMSO) to prepare a 12-point test compound plate, and 0.5 μl was added (final concentration DMSO 0.5%).
In the following Tables 1 to 3, in a case of GI50 being 10 to 30 μM, it was indicated as (+), in a case of it being 1 to 10 μM, it was indicated as (++), and in case of being less than 1 μM, it was indicated as (+++).

O=C1CC(c2cccc(NC(=O)c3cnccn3)c2)=Nc2cscc2N1 [Example 28, N-(3-(2-oxo-2,3-dihydro-1H-thieno[3,4-b][1,4]diazepine-4-yl)phenyl)pyrazine-2-carboxamide]
GI50: 10 to 30 µM

O=C1CC(c2cccc(NC(=O)Nc3ccc(Cl)cc3)c2)=Nc2cscc2N1 [Example 47, 1-(4-chlorophenyl)-3-(3-(2-oxo-2,3-dihydro-1H-thieno[3,4-b][1,4]diazepine-4-yl)phenyl)urea]
GI50: 1 to 10 µM

O=C(Cc1ccc(-c2ccccc2)cc1)Nc1ccc(C2=Nc3cscc3NC(=O)C2)cc1 [Example 16, 2-(biphenyl-4-yl)-N-(4-(2-oxo-2,3-dihydro-1H-thieno[3,4-b][1,4]diazebine-4-yl)phenyl)acetamide]
GI50: 10 to 30 µM

O=C1CC(c2cccc(NC(=O)c3ccccc3-c3ccccc3)c2)=Nc2cscc2N1 [Example 23, N-(3-(2-oxo-2,3-dihydro-1H-thieno[3,4-b][1,4]diazepine-4-yl)phenyl)biphenyl-2-carboxamide]
GI50: 10 to 30 µM

N#Cc1ccccc1Sc1ccccc1C(=O)Nc1cccc(C2=Nc3cscc3NC(=O)C2)c1 [Example 32, 2-(2-cyanophenylthio)-N-(3-(2-oxo-2,3-dihydro-1H-thieno[3,4-b][1,4]diazepine-4-yl)phenyl)benzamide]
GI50: 10 to 30 µM

O=C(Cc1c[nH]c2ccccc12)Nc1ccc(C2=Nc3cscc3NC(=O)C2)cc1 [Example 14, 2-(1H-indol-3-yl)-N-(4-(2-oxo-2,3-dihydro-1H-thieno[3,4-b][1,4]diazepine-4-yl)phenyl)acetamide]
GI50: 10 to 30 µM

O=C1CC(c2ccc(NC(=O)Nc3ccc(Cl)cc3)cc2)=Nc2cscc2N1 [Example 40, 1-(4-chlorophenyl)-3-(4-(2-oxo-2,3-dihydro-1H-thieno[3,4-b][1,4]diazepine-4-yl)phenyl)urea]
GI50: 1 to 10 µM

O=C1CC(c2cccc(NC(=O)Nc3cccc(Cl)c3)c2)=Nc2cscc2N1 [Example 48, 1-(3-chlorophenyl)-3-(3-(2-oxo-2,3-dihydro-1H-thieno[3,4-b][1,4]diazepine-4-yl)phenyl)urea]
GI50: < 1 µM
effects against A375P: significant effects

O=C1CC(c2cccc(NC(=O)c3ccc(N4CCOCC4)c(C(F)(F)F)c3)c2)=Nc2cscc2N1 [Example 21, 4-morpholino-N-(3-(2-oxo-2,3-dihydro-1H-thieno[3,4-b][1,4]diazepine-4-yl)phenyl)-3-(trifluoromethyl)benzamide]
GI50: 1 to 10 µM

O=C1CC(c2cccc(NC(=O)c3ccncc3)c2)=Nc2cscc2N1 [Example 27, N-(3-(2-oxo-2,3-dihydro-1H-thieno[3,4-b][1,4]diazepine-4-yl)phenyl)isonicotinamide]
GI50: 10 to 30 µM

CC(=O)N1CCC(C(=O)Nc2ccc(C3=Nc4cscc4NC(=O)C3)cc2)CC1 [Example 8, 1-acetyl-N-(4-(2-oxo-2,3-dihydro-1H-thieno[3,4-b][1,4]diazepine-4-yl)phenyl)piperidine-4-carboxamide]
GI50: 10 to 30 µM

Cc1c(C)c2c(c(C)c1O)CC[C@](C)(C(=O)Nc1cccc(C3=Nc4cscc4NC(=O)C3)c1)O2 [Example 38, (R)-6-hydroxy-2,5,7,8-tetramethyl-N-(3-(2-oxo-2,3-dihydro-1H-thieno[3,4-b][1,4]diazepine-4-yl)phenyl)chroman-2-carboxamide]
GI50: 10 to 30 µM

O=C1CC(c2ccc(NC(=O)Nc3cc(Cl)cc(Cl)c3)cc2)=Nc2cscc2N1 [Example 44, 1-(3,5-dichlorophenyl)-3-(4-(2-oxo-2,3-dihydro-1H-thieno[3,4-b][1,4]diazepine-4-yl)phenyl)urea]
GI50: < 1 µM
effects against A375P: significant effects

O=C1CC(c2ccc(NC(=O)c3ccc(Cl)c(C(F)(F)F)c3)cc2)=Nc2cscc2N1 [Example 1, 4-chloro-N-(4-(2-oxo-2,3-dihydro-1H-thieno[3,4-b][1,4]diazepine-4-yl)phenyl)-3-(trifluoromethyl)benzamide]
GI50: 1 to 10 µM

O=C1CC(c2ccc(NC(=O)C(c3ccc(Cl)cc3)c3ccc(Cl)cc3)cc2)=Nc2cscc2N1 [Example 9, 2,2-bis(4-chlorophenyl)-N-(4-(2-oxo-2,3-dihydro-1H-thieno[3,4-b][1,4]diazepine-4-yl)phenyl)acetamide]
GI50: 10 to 30 µM

O=C1CC(c2ccc(NC(=O)c3ccc(-c4ccccc4)cc3)cc2)=Nc2cscc2N1 [Example 5, N-(4-(2-oxo-2,3-dihydro-1H-thieno[3,4-b][1,4]diazepine-4-yl)phenyl)biphenyl-4-carboxamide]
GI50: < 1 µM
effects against A375P: significant effects

Cc1cn(-c2cc(C(=O)Nc3cccc(C4=Nc5cscc5NC(=O)C4)c3)cc(C(F)(F)F)c2)cn1 [Example 19, 3-(4-methyl-1H-imidazol-1-yl)-N-(3-(2-oxo-2,3-dihydro-1H-thieno[3,4-b][1,4]diazepine-4-yl)phenyl)-5-(trifluoromethyl)benzamide]
GI50: 10 to 30 µM

CN1CCN(c2cc(C(=O)Nc3cccc(C4=Nc5cscc5NC(=O)C4)c3)cc(C(F)(F)F)c2)CC1 [Example 29, 3-(4-methylpiperazine-1-yl)-N-(3-(2-oxo-2,3-dihydro-1H-thieno[3,4-b][1,4]diazepine-4-yl)phenyl)-5-(trifluoromethyl)benzamide]
GI50: 10 to 30 µM

O=C1CC(c2cccc(NC(=O)c3ccc(Cl)cc3)c2)=Nc2cscc2N1 [Example 30, 4-chloro-N-(3-(2-oxo-2,3-dihydro-1H-thieno[3,4-b][1,4]diazepine-4-yl)phenyl)benzamide]
GI50: 10 to 30 µM

O=C1CC(c2cccc(NC(=O)Nc3ccc(Cl)c(Cl)c3)c2)=Nc2cscc2N1 [Example 50, 1-(3,4-dichlorophenyl)-3-(3-(2-oxo-2,3-dihydro-1H-thieno[3,4-b][1,4]diazepine-4-yl)phenyl)urea]
GI50: 1 to 10 µM

O=C1CC(c2cccc(NC(=O)c3ccc4ccccc4n3)c2)=Nc2cscc2N1 [Example 36, N-(3-(2-oxo-2,3-dihydro-1H-thieno[3,4-b][1,4]diazepine-4-yl)phenyl)quinoline-2-carboxamide]
GI50: 10 to 30 µM

O=C(Cc1c[nH]c2ccccc12)Nc1cccc(C2=Nc3cscc3NC(=O)C2)c1 [Example 31, 2-(1H-indol-3-yl)-N-(3-(2-oxo-2,3-dihydro-1H-thieno[3,4-b][1,4]diazepine-4-yl)phenyl)acetamide]
GI50: 10 to 30 µM

O=C1CC(c2cccc(NC(=O)Nc3ccccc3F)c2)=Nc2cscc2N1 [Example 52, 1-(2-fluorophenyl)-3-(3-(2-oxo-2,3-dihydro-1H-thieno[3,4-b][1,4]diazepine-4-yl)phenyl)urea]
GI50: 10 to 30 µM

O=C1CC(c2ccc(NC(=O)c3ccncc3)cc2)=Nc2cscc2N1 [Example 10, N-(4-(2-oxo-2,3-dihydro-1H-thieno[3,4-b][1,4]diazepine-4-yl)phenyl)isonicotinamide]
GI50: 10 to 30 µM

O=C1CC(c2ccc(NC(=O)c3cnccn3)cc2)=Nc2cscc2N1 [Example 11, N-(4-(2-oxo-2,3-dihydro-1H-thieno[3,4-b][1,4]diazepine-4-yl)phenyl)pyrazine-2-carboxamide]
GI50: 10 to 30 µM

O=C1CC(c2ccc(NC(=O)Nc3cccc(Cl)c3)cc2)=Nc2cscc2N1 [Example 41, 1-(3-chlorophenyl)-3-(4-(2-oxo-2,3-dihydro-1H-thieno[3,4-b][1,4]diazepine-4-yl)phenyl)urea]
GI50: 10 to 30 µM

O=C1CC(c2ccc(NC(=O)Nc3ccc(Cl)c(Cl)c3)cc2)=Nc2cscc2N1 [Example 42, 1-(3,4-dichlorophenyl)-3-(4-(2-oxo-2,3-dihydro-1H-thieno[3,4-b][1,4]diazepine-4-yl)phenyl)urea]
GI50: 1 to 10 µM

O=C1CC(c2cccc(NC(=O)c3ccc(-c4ccccc4)cc3)c2)=Nc2cscc2N1 [Example 22, N-(3-(2-oxo-2,3-dihydro-1H-thieno[3,4-b][1,4]diazepine-4-yl)phenyl)biphenyl-4-carboxamide]
GI50: 10 to 30 µM

O=C1CC(c2cccc(NC(=O)c3cnn(-c4ccccc4)c3C(F)(F)F)c2)=Nc2cscc2N1 [Example 24, N-(3-(2-oxo-2,3-dihydro-1H-thieno[3,4-b][1,4]diazepine-4-yl)phenyl)-1-phenyl-5-(trifluoromethyl)-1H-pyrazole-4-carboxamide]
GI50: 10 to 30 µM

Cc1cc(C)cc(C(=O)Nc2cccc(C3=Nc4cscc4NC(=O)C3)c2)c1 [Example 34, 3,5-dimethyl-N-(3-(2-oxo-2,3-dihydro-1H-thieno[3,4-b][1,4]diazepine-4-yl)phenyl)benzamide]
GI50: 10 to 30 µM

O=C1CC(c2cccc(NC(=O)Nc3ccc(Cl)c(C(F)(F)F)c3)c2)=Nc2cscc2N1 [Example 46, 1-(4-chloro-3-(trifluoromethyl)phenyl)-3-(3-(2-oxo-2,3-dihydro-1H-thieno[3,4-b][1,4]diazepine-4-yl)phenyl)urea]
GI50: 1 to 10 µM

O=C1CC(c2ccc(NC(=O)c3ccccc3-c3ccccc3)cc2)=Nc2cscc2N1 [Example 6, N-(4-(2-oxo-2,3-dihydro-1H-thieno[3,4-b][1,4]diazepine-4-yl)phenyl)biphenyl-2-carboxamide]
GI50: 10 to 30 µM

O=C1CC(c2ccc(NC(=O)c3cc(N4CCOCC4)cc(C(F)(F)F)c3)cc2)=Nc2cscc2N1 [Example 3, 3-morpholino-N-(4-(2-oxo-2,3-dihydro-1H-thieno[3,4-b][1,4]diazepine-4-yl)phenyl)-5-(trifluoromethyl)benzamide]
GI50: < 1 µM
effects against A375P: significant effects
